Experimental data published in patent publication US12077503B2, “Substituted cyclic amides and their use as herbicides” (FMC CORPORATION, priority 2015, dated 2024).

What was measured:
Format in all cases: in vivo
[1] = system: pigweed (Amaranthus retroflexus); test: Test A postemergence; conditions: Amaranthus retroflexus, post-emergence, 240 h, read-out: Pigweed plant response rating (0 to 100 scale)
In short: (§1)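 Preemergence directed soil spray on seeded pots, or postemergence application to plants 2–10 cm, one- to two-leaf. Solvent mixture non-phytotoxic, with surfactant. Scored ~10 d later, visually, 0–100 vs untreated.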

[2] = system: barnyardgrass (Echinochloa crus-galli); test: Test A postemergence; conditions: Echinochloa crus-galli, post-emergence, 240 h, read-out: Barnyardgrass plant response rating (0 to 100 scale)
In short: as §1

Kochia (Kochia scoparia) [3] = test: Test A postemergence; conditions: Bassia scoparia, post-emergence, 240 h, read-out: Kochia plant response rating (0 to 100 scale)
In short: as §1

[4] = system: Galium (catchweed bedstraw, Galium aparine); test: Test A postemergence; conditions: Galium, post-emergence, 240 h, read-out: Galium plant response rating (0 to 100 scale)
In short: as §1

[5] = system: ragweed (common ragweed, Ambrosia elatior); test: Test A postemergence; conditions: Ambrosia artemisiifolia, post-emergence, 240 h, read-out: Ragweed plant response rating (0 to 100 scale)
In short: as §1

[6] = system: wheat (Triticum aestivum); test: Test A postemergence; conditions: Triticum aestivum, post-emergence, 240 h, read-out: Wheat plant response rating (0 to 100 scale)
In short: as §1

[7] = system: blackgrass (Alopecurus myosuroides); test: Test A postemergence; conditions: Alopecurus myosuroides, post-emergence, 240 h, read-out: Blackgrass plant response rating (0 to 100 scale)
In short: as §1

[8] = system: giant foxtail (Setaria faberii); test: Test A postemergence; conditions: Setaria faberi, post-emergence, 240 h, read-out: Foxtail, Giant plant response rating (0 to 100 scale)
In short: as §1

corn (Zea mays) = test: Test A postemergence; conditions: Zea mays, post-emergence, 240 h, read-out: Corn plant response rating (0 to 100 scale)
In short: as §1

[9] = system: ryegrass, Italian (Italian ryegrass, Lolium multiflorum); test: Test A postemergence; conditions: Lolium multiflorum, post-emergence, 240 h, read-out: Ryegrass, Italian plant response rating (0 to 100 scale)
In short: as §1

[10] = system: barnyardgrass (Echinochloa crus-galli); test: Test B flooded paddy test; conditions: Echinochloa crus-galli, 250 g ai/ha, Flood; 0 to 100 scale where 0 is no effect and 100 is complete control; read-out: Barnyardgrass plant response rating
In short: (§2)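 Greenhouse paddy pots with 2-leaf stage plants received compound by direct addition to floodwater 3 cm deep, kept at that level. Scored visually at 13–15 d versus controls (0 no effect; 100 complete control).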

[11] = system: sedge, umbrella (small-flower umbrella sedge, Cyperus difformis); test: Test B flooded paddy test; conditions: Cyperus difformis, 250 g ai/ha, Flood; 0 to 100 scale where 0 is no effect and 100 is complete control; read-out: Sedge, Umbrella plant response rating
In short: as §2

rice (Oryra sativa) = test: Test B flooded paddy test; conditions: Oryza sativa, 250 g ai/ha, Flood; 0 to 100 scale where 0 is no effect and 100 is complete control; read-out: Rice plant response rating
In short: as §2

[12] = system: ducksalad (Heteranthera limosa); test: Test B flooded paddy test; conditions: Heteranthera limosa, 250 g ai/ha, Flood; 0 to 100 scale where 0 is no effect and 100 is complete control; read-out: Ducksalad plant response rating
In short: as §2

[13] = system: pigweed (Amaranthus retroflexus); test: Test A preemergence; conditions: Amaranthus retroflexus, pre-emergence, 240 h, 0 to 100 scale where 0 is no effect and 100 is complete control, read-out: Pigweed plant response rating
[14] = system: barnyardgrass (Echinochloa crus-galli); test: Test A preemergence; conditions: Echinochloa crus-galli, pre-emergence, 240 h, 0 to 100 scale where 0 is no effect and 100 is complete control, read-out: Barnyardgrass plant response rating
In short: as §1

Kochia (Kochia scoparia) [15] = test: Test A preemergence; conditions: Bassia scoparia, pre-emergence, 240 h, 0 to 100 scale where 0 is no effect and 100 is complete control, read-out: Kochia plant response rating
In short: as §1

[16] = system: ragweed (common ragweed, Ambrosia elatior); test: Test A preemergence; conditions: Ambrosia artemisiifolia, pre-emergence, 240 h, 0 to 100 scale where 0 is no effect and 100 is complete control, read-out: Ragweed plant response rating
In short: as §1

[17] = system: giant foxtail (Setaria faberii); test: Test A preemergence; conditions: Setaria faberi, pre-emergence, 240 h, 0 to 100 scale where 0 is no effect and 100 is complete control, read-out: Foxtail, Giant plant response rating
In short: as §1

[18] = system: ryegrass, Italian (Italian ryegrass, Lolium multiflorum); test: Test A preemergence; conditions: Lolium multiflorum, pre-emergence, 240 h, 0 to 100 scale where 0 is no effect and 100 is complete control, read-out: Ryegrass, Italian plant response rating
In short: as §1

[19] = 125 g ai/ha, postemergence, visual injury vs untreated controls after approx. 10 d, 0 = no effect, 100 = complete control
[20] = Postemergence, 31 g ai/ha, 0 is no effect, 100 is complete control
[21] = 125 g ai/ha, preemergence, visual injury rating, approximately 10 d

## Cc1ccc([C@H]2CN(C)C(=O)[C@@H]2C(=O)Nc2cccc(C#N)c2F)cc1 [Compound 1188]
[1]; [19]
  pest or weed control at 125 g/ha: 20%
[1]; [20]
  pest or weed control at 31 g/ha: 0%
[2]; [19]
  pest or weed control at 125 g/ha: 100%
[2]; [20]
  pest or weed control at 31 g/ha: 70%
Kochia (Kochia scoparia) [3]; [19]
  pest or weed control at 125 g/ha: 50%
Kochia (Kochia scoparia) [3]; [20]
  pest or weed control at 31 g/ha: 0%
[4]; [19]
  pest or weed control at 125 g/ha: 60%
[4]; [20]
  pest or weed control at 31 g/ha: 50%
[5]; [19]
  pest or weed control at 125 g/ha: 40%
[5]; [20]
  pest or weed control at 31 g/ha: 0%
[6]; [19]
  plant injury at 125 g/ha: 40%
[6]; [20]
  plant injury at 31 g/ha: 0%
[7]; [19]
  pest or weed control at 125 g/ha: 70%
[7]; [20]
  pest or weed control at 31 g/ha: 30%
[8]; [19]
  pest or weed control at 125 g/ha: 80%
[8]; [20]
  pest or weed control at 31 g/ha: 70%
Corn (Zea mays); [19]
  plant injury at 125 g/ha: 50%
Corn (Zea mays); [20]
  plant injury at 31 g/ha: 0%
[9]; [19]
  pest or weed control at 125 g/ha: 40%
[9]; [20]
  pest or weed control at 31 g/ha: 0%
[10]
  pest or weed control at 250 g/ha: 65%
[11]
  pest or weed control at 250 g/ha: 0%
Rice (Oryra sativa)
  pest or weed control at 250 g/ha: 15%
[12]
  pest or weed control at 250 g/ha: 100%
[13]; 31 g ai/ha, Preemergence
  pest or weed control at 31 g/ha: 40%
[13]; [21]
  pest or weed control at 125 g/ha: 80%
[14]; 31 g ai/ha, Preemergence
  pest or weed control at 31 g/ha: 90%
[14]; [21]
  pest or weed control at 125 g/ha: 100%
Kochia (Kochia scoparia) [15]; 31 g ai/ha, Preemergence
  pest or weed control at 31 g/ha: 60%
Kochia (Kochia scoparia) [15]; [21]
  pest or weed control at 125 g/ha: 80%
[16]; 31 g ai/ha, Preemergence
  pest or weed control at 31 g/ha: 30%
[16]; [21]
  pest or weed control at 125 g/ha: 70%
[17]; 31 g ai/ha, Preemergence
  pest or weed control at 31 g/ha: 90%
[17]; [21]
  pest or weed control at 125 g/ha: 100%
[18]; 31 g ai/ha, Preemergence
  pest or weed control at 31 g/ha: 0%
[18]; [21]
  pest or weed control at 125 g/ha: 60%
